Laboratory results as given in ChEMBL document CHEMBL3045821, “Microwave-assisted synthesis of 3-indolyl substituted 4H-chromenes catalyzed by DMAP and their antimicrobial activity” (2012).
In brackets after ≈: the same amount, converted by molar mass.

Legend:
Type in all cases: functional
Candida albicans = test: Antifungal activity against Candida albicans MTCC 227 after 24 to 48 hr by broth microdilution method
Aspergillus fumigatus = test: Antifungal activity against Aspergillus fumigatus MTCC 3008 after 24 to 48 hr by broth microdilution method
Escherichia coli = test: Antibacterial activity against Escherichia coli MTCC 443 after 24 to 48 hr by broth microdilution method
Vibrio cholerae = test: Antibacterial activity against Vibrio cholerae MTCC 3906 after 24 to 48 hr by broth microdilution method
Salmonella typhi = test: Antibacterial activity against Salmonella enterica subsp. enterica serovar Typhi MTCC 98 after 24 to 48 hr by broth microdilution method
Bacillus subtilis = test: Antibacterial activity against Bacillus subtilis MTCC 441 after 24 to 48 hr by broth microdilution method
Clostridium tetani = test: Antibacterial activity against Clostridium tetani MTCC 449 after 24 to 48 hr by broth microdilution method
Streptococcus pneumoniae = test: Antibacterial activity against Streptococcus pneumoniae MTCC 1936 after 24 to 48 hr by broth microdilution method

SMILES: Cc1ccc(-c2[nH]c3ccccc3c2C2C(C#N)=C(N)OC3=C2C(=O)CCC3)cc1 (stereo not drawn)
- MIC (Candida albicans): 1000 µg/mL (≈ 2530 µM)
- MIC (Aspergillus fumigatus): 1000 µg/mL (≈ 2530 µM)
- MIC (Escherichia coli): 200 µg/mL (≈ 506 µM)
- MIC (Vibrio cholerae): 250 µg/mL (≈ 632 µM)
- MIC (Salmonella typhi): 250 µg/mL (≈ 632 µM)
- MIC (Bacillus subtilis): 500 µg/mL (≈ 1260 µM)
- MIC (Clostridium tetani): 500 µg/mL (≈ 1260 µM)
- MIC (Streptococcus pneumoniae): 500 µg/mL (≈ 1260 µM)

SMILES: CC1(C)S[C@@H]2[C@H](NC(=O)[C@H](N)c3ccccc3)C(=O)N2[C@H]1C(=O)O [AMPICILLIN]
- MIC (Escherichia coli): 100 µg/mL (≈ 286 µM)
- MIC (Vibrio cholerae): 100 µg/mL (≈ 286 µM)
- MIC (Salmonella typhi): 100 µg/mL (≈ 286 µM)
- MIC (Bacillus subtilis): 250 µg/mL (≈ 715 µM)
- MIC (Clostridium tetani): 250 µg/mL (≈ 715 µM)
- MIC (Streptococcus pneumoniae): 100 µg/mL (≈ 286 µM)

SMILES: N#CC1=C(N)OC2=C(C(=O)CCC2)C1c1c(-c2ccc(Br)cc2)[nH]c2ccccc12 (stereo not drawn)
- MIC (Candida albicans): 500 µg/mL (≈ 1090 µM)
- MIC (Aspergillus fumigatus): 500 µg/mL (≈ 1090 µM)
- MIC (Escherichia coli): 125 µg/mL (≈ 272 µM)
- MIC (Vibrio cholerae): 200 µg/mL (≈ 434 µM)
- MIC (Salmonella typhi): 200 µg/mL (≈ 434 µM)
- MIC (Bacillus subtilis): 200 µg/mL (≈ 434 µM)
- MIC (Clostridium tetani): 200 µg/mL (≈ 434 µM)
- MIC (Streptococcus pneumoniae): 100 µg/mL (≈ 217 µM)

SMILES: Cc1ccc(-c2[nH]c3ccccc3c2C2C(C#N)=C(N)OC3=C2C(=O)CC(C)(C)C3)cc1 (stereo not drawn)
- MIC (Candida albicans): 500 µg/mL (≈ 1180 µM)
- MIC (Aspergillus fumigatus): 1000 µg/mL (≈ 2360 µM)
- MIC (Escherichia coli): 500 µg/mL (≈ 1180 µM)
- MIC (Vibrio cholerae): 500 µg/mL (≈ 1180 µM)
- MIC (Salmonella typhi): 250 µg/mL (≈ 590 µM)
- MIC (Bacillus subtilis): 250 µg/mL (≈ 590 µM)
- MIC (Clostridium tetani): 250 µg/mL (≈ 590 µM)
- MIC (Streptococcus pneumoniae): 200 µg/mL (≈ 472 µM)

SMILES: CC1(C)CC(=O)C2=C(C1)OC(N)=C(C#N)C2c1c(-c2ccc(Cl)cc2)[nH]c2ccccc12 (stereo not drawn)
- MIC (Candida albicans): > 1000 µg/mL
- MIC (Aspergillus fumigatus): > 1000 µg/mL
- MIC (Escherichia coli): 62.5 µg/mL (≈ 141 µM)
- MIC (Vibrio cholerae): 100 µg/mL (≈ 225 µM)
- MIC (Salmonella typhi): 200 µg/mL (≈ 451 µM)
- MIC (Bacillus subtilis): 250 µg/mL (≈ 563 µM)
- MIC (Clostridium tetani): 250 µg/mL (≈ 563 µM)
- MIC (Streptococcus pneumoniae): 250 µg/mL (≈ 563 µM)

SMILES: COc1ccc(-c2[nH]c3ccccc3c2C2C(C#N)=C(N)OC3=C2C(=O)CC(C)(C)C3)cc1 (stereo not drawn)
- MIC (Candida albicans): 500 µg/mL (≈ 1140 µM)
- MIC (Aspergillus fumigatus): > 1000 µg/mL
- MIC (Escherichia coli): 500 µg/mL (≈ 1140 µM)
- MIC (Vibrio cholerae): 500 µg/mL (≈ 1140 µM)
- MIC (Salmonella typhi): 500 µg/mL (≈ 1140 µM)
- MIC (Bacillus subtilis): 500 µg/mL (≈ 1140 µM)
- MIC (Clostridium tetani): 500 µg/mL (≈ 1140 µM)
- MIC (Streptococcus pneumoniae): 500 µg/mL (≈ 1140 µM)

SMILES: CC1(C)CC(=O)C2=C(C1)OC(N)=C(C#N)C2c1c(-c2ccc(S(C)(=O)=O)cc2)[nH]c2ccccc12 (stereo not drawn)
- MIC (Candida albicans): 250 µg/mL (≈ 513 µM)
- MIC (Aspergillus fumigatus): 500 µg/mL (≈ 1030 µM)
- MIC (Escherichia coli): 100 µg/mL (≈ 205 µM)
- MIC (Vibrio cholerae): 500 µg/mL (≈ 1030 µM)
- MIC (Salmonella typhi): 200 µg/mL (≈ 410 µM)
- MIC (Bacillus subtilis): 250 µg/mL (≈ 513 µM)
- MIC (Clostridium tetani): 125 µg/mL (≈ 256 µM)
- MIC (Streptococcus pneumoniae): 500 µg/mL (≈ 1030 µM)

SMILES: CC1(C)CC(=O)C2=C(C1)OC(N)=C(C#N)C2c1c(-c2ccccc2)[nH]c2ccccc12 (stereo not drawn)
- MIC (Candida albicans): 1000 µg/mL (≈ 2440 µM)
- MIC (Aspergillus fumigatus): 500 µg/mL (≈ 1220 µM)
- MIC (Escherichia coli): 500 µg/mL (≈ 1220 µM)
- MIC (Vibrio cholerae): 200 µg/mL (≈ 488 µM)
- MIC (Salmonella typhi): 500 µg/mL (≈ 1220 µM)
- MIC (Bacillus subtilis): 200 µg/mL (≈ 488 µM)
- MIC (Clostridium tetani): 200 µg/mL (≈ 488 µM)
- MIC (Streptococcus pneumoniae): 200 µg/mL (≈ 488 µM)

SMILES: N#CC1=C(N)OC2=C(C(=O)CCC2)C1c1c(-c2ccccc2)[nH]c2ccccc12 (stereo not drawn)
- MIC (Candida albicans): 1000 µg/mL (≈ 2620 µM)
- MIC (Aspergillus fumigatus): 500 µg/mL (≈ 1310 µM)
- MIC (Escherichia coli): 500 µg/mL (≈ 1310 µM)
- MIC (Vibrio cholerae): 250 µg/mL (≈ 655 µM)
- MIC (Salmonella typhi): 500 µg/mL (≈ 1310 µM)
- MIC (Bacillus subtilis): 500 µg/mL (≈ 1310 µM)
- MIC (Clostridium tetani): 500 µg/mL (≈ 1310 µM)
- MIC (Streptococcus pneumoniae): 500 µg/mL (≈ 1310 µM)

SMILES: COc1ccc(-c2[nH]c3ccccc3c2C2C(C#N)=C(N)OC3=C2C(=O)CCC3)cc1 (stereo not drawn)
- MIC (Candida albicans): 500 µg/mL (≈ 1220 µM)
- MIC (Aspergillus fumigatus): 1000 µg/mL (≈ 2430 µM)
- MIC (Escherichia coli): 100 µg/mL (≈ 243 µM)
- MIC (Vibrio cholerae): 200 µg/mL (≈ 486 µM)
- MIC (Salmonella typhi): 200 µg/mL (≈ 486 µM)
- MIC (Bacillus subtilis): 250 µg/mL (≈ 608 µM)
- MIC (Clostridium tetani): 100 µg/mL (≈ 243 µM)
- MIC (Streptococcus pneumoniae): 200 µg/mL (≈ 486 µM)
